How the values were obtained:
[1] = target: T1, human Nav1.7 (Homo sapiens, UniProt Q15858); assay: Nav 1.7 IWB In Vitro Assay (IonWorks Barracuda); assay type: cell-based; conditions: HEK293 cells stably transfected with human Nav 1.7; IonWorks Barracuda population patch-clamp; cells clamped to −20 mV for 4 minutes with compound; 26th pulse; read-out: hNav1.7 IWB IC50
T1 construct: expressed in transfected cells; host or cells: HEK293
Description: Nav 1.7 IWB In Vitro Assay
HEK293 cells stably transfected with human Nav 1.7 were recorded in population patch-clamp mode with the IonWorks© Barracuda (IWB) automated electrophysiology system (Molecular Devices, LLC, Sunnyvale, Calif.). From a holding potential of −110 mV, sodium currents were elicited by a train of 26 depolarizations of 150 ms duration to −20 mV at a frequency of 5 Hz. Cells were then clamped to −20 mV for a period of 4 minutes in the presence of a single concentration of test compound. Following this compound incubation period, cells were clamped to −110 mV for three seconds to recover unbound channels and put through the same 26 pulse voltage protocol as above. Peak inward current during the 26th pulse to −20 mV in the presence of compound was divided by the peak inward current evoked by the 26th pulse to −20 mV in the absence of compound to determine percent inhibition. Concentration-response curves of percent inhibition as a function of concentration were generated to calculate IC50 values.

[2] = target: T1, human Nav1.7; assay: Nav 1.7 In Vitro PatchXpress (PX) Assay; assay type: cell-based; conditions: HEK 293 cells stably transfected with human Nav1.7; PatchXpress whole cell voltage clamp; partially inactivated state (holding potential yielding 20 to 50% inactivation); read-out: hNav1.7 PX IC50
Description: Nav 1.7 In Vitro PatchXpress (PX) Assay
HEK 293 cells stably transfected with human Nav1.7 were recorded in whole cell voltage clamp mode with the PatchXpress automated electrophysiology system (Molecular Devices, LLC, Sunnyvale, Calif.). Compound effects were measured on a partially inactivated state of the sodium channel. Cells were clamped to a holding potential yielding 20 to 50% inactivation. To elicit sodium current, channels were activated by pulsing to −10 mV for 20 msec. This voltage protocol was repeated at a rate of 0.1 Hz throughout the experiment. A single concentration of test compound was applied to cells for a duration of 3 minutes. Peak sodium current was measured at the end of the compound addition period to determine percent inhibition. Three to five cells were tested per concentration, and IC50 curves were fitted to percent inhibition as a function of concentration.

T1 sequence (Q15858 whole entry): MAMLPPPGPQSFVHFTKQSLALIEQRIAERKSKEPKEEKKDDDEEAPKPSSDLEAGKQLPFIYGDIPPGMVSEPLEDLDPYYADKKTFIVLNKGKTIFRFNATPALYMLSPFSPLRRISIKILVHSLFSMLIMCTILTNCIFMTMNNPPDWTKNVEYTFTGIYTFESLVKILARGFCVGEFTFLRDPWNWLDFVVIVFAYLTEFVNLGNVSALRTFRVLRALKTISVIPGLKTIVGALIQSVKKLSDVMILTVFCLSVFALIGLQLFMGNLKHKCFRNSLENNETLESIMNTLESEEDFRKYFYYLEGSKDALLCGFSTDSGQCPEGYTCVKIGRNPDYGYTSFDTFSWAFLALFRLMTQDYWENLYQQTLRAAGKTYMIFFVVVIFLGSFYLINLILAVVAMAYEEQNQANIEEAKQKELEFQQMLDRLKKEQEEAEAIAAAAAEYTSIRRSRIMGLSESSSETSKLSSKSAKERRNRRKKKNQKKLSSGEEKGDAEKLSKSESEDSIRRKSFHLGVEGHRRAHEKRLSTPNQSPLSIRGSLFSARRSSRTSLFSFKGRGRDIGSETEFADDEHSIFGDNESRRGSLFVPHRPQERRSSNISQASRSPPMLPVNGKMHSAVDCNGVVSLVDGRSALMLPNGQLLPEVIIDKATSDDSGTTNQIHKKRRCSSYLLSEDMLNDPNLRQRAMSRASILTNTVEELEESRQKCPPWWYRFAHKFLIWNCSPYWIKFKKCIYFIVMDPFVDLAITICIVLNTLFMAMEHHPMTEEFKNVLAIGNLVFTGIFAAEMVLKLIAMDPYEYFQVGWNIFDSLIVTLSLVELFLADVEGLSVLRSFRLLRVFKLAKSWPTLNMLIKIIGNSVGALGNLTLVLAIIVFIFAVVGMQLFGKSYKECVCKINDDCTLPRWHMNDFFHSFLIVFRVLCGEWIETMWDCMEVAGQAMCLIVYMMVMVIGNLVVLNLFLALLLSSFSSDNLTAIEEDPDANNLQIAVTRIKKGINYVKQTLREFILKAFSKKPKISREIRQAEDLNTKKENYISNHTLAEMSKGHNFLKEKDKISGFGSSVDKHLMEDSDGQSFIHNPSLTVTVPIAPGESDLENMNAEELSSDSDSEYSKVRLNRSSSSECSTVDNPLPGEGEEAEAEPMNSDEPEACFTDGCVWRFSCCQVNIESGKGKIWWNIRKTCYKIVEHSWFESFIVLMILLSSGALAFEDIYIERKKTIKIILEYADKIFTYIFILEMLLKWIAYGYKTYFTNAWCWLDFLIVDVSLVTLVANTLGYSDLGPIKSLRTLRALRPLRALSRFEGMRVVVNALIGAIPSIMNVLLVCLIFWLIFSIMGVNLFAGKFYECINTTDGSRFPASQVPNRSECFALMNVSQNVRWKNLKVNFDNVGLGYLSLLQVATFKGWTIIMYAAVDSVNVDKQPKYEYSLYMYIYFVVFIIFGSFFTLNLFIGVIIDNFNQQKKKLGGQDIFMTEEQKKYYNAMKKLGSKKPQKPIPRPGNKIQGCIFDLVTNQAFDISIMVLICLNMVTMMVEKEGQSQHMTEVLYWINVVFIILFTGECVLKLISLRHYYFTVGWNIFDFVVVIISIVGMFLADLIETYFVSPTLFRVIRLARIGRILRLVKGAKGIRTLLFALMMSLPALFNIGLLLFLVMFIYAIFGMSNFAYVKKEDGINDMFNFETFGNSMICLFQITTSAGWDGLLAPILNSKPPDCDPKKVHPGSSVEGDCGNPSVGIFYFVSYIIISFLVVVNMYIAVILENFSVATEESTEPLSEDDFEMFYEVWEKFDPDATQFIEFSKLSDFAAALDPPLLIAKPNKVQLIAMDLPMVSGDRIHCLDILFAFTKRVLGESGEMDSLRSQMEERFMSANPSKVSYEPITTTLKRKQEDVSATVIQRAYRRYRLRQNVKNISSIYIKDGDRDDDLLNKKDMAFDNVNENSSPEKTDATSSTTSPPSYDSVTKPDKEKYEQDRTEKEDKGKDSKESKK

Row | Compound | IC50 [1] [nM] | IC50 [2] [nM]
1 | COc1cc(-c2cc(F)cc(Cl)c2)c(F)cc1-n1c2c(ccc1=O)CN(S(=O)(=O)Nc1cc(C)ncn1)CC2 (racemic) [4-(Rac), (Rac)-1-(3′-chloro-2,5′-difluoro-5-methoxy-4-biphenylyl)-N-(6-methyl-4-pyrimidinyl)-2-oxo-1,5,7,8-tetrahydro-1,6-naphthyridine-6(2H)-sulfonamide] | 45.9 | 386
2 | COc1cc(-c2cc(F)cc(Cl)c2)c(F)cc1-n1c2c(ccc1=O)CN(S(=O)(=O)Nc1ccnc(C)n1)CC2 (racemic) [6-(Rac), (Rac)-1-(3′-chloro-2,5′-difluoro-5-methoxy-4-biphenylyl)-N-(2-methyl-4-pyrimidinyl)-2-oxo-1,5,7,8-tetrahydro-1,6-naphthyridine-6(2H)-sulfonamide] | 101 | 666
3 | COc1cc(-c2cc(F)cc(F)c2)c(F)cc1-n1c2c(ccc1=O)CN(S(=O)(=O)Nc1ncc(F)cn1)CC2 (racemic) [Example 10-(Rac), (Rac)-N-(5-fluoro-2-pyrimidinyl)-2-oxo-1-(2,3′,5′-trifluoro-5-methoxy-4-biphenylyl)-1,5,7,8-tetrahydro-1,6-naphthyridine-6(2H)-sulfonamide] | 163 | 2280
4 | COc1cc(-c2ccc(F)c(C)c2)c(F)cc1-n1c2c(ccc1=O)CN(S(=O)(=O)Nc1ncccn1)CC2 (racemic) [Example 29-(Rac), (Rac)-1-(2,4′-difluoro-5-methoxy-3′-methyl-4-biphenylyl)-2-oxo-N-2-pyrimidinyl-1,5,7,8-tetrahydro-1,6-naphthyridine-6(2H)-sulfonamide] | 122 | 1170
5 | COc1cc(-c2cccc(C(F)(F)F)c2)c(Cl)cc1-n1c2c(ccc1=O)CN(S(=O)(=O)Nc1cccnn1)CC2 (racemic) [Example 91-(Rac), (Rac)-1-(2-chloro-5-methoxy-3′-(trifluoromethyl)-[1,1′-biphenyl]-4-yl)-2-oxo-N-(pyridazin-3-yl)-1,2,7,8-tetrahydro-1,6-naphthyridine-6(5H)-sulfonamide] | 11.2 | 29.9
6 | COc1cc(-c2cc(F)c(F)c(F)c2)c(F)cc1-n1c2c(ccc1=O)CN(S(=O)(=O)Nc1cccnn1)CC2 [Example 46, P-2-oxo-N-3-pyridazinyl-1-(2,3′,4′,5′-tetrafluoro-5-methoxy-4-biphenylyl)-1,5,7,8-tetrahydro-1,6-naphthyridine-6(2H)-sulfonamide] |  | 102
7 | COc1cc(-c2ccc(Cl)c(F)c2)c(F)cc1-n1c2c(ccc1=O)CN(S(=O)(=O)Nc1cccnn1)CC2 [Example 47, P-1-(4′-chloro-2,3′-difluoro-5-methoxy-4-biphenylyl)-2-oxo-N-3-pyridazinyl-1,5,7,8-tetrahydro-1,6-naphthyridine-6(2H)-sulfonamide] |  | 95.1
8 | COc1cc(-c2ccc(F)c(Cl)c2)c(F)cc1-n1c2c(ccc1=O)CN(S(=O)(=O)Nc1cccnn1)CC2 [Example 48, P-1-(3′-chloro-2,4′-difluoro-5-methoxy-4-biphenylyl)-2-oxo-N-3-pyridazinyl-1,5,7,8-tetrahydro-1,6-naphthyridine-6(2H)-sulfonamide] |  | 80.3
9 | COc1cc(-c2cccc(Cl)c2F)c(F)cc1-n1c2c(ccc1=O)CN(S(=O)(=O)Nc1cccnn1)CC2 [Example 49, P-1-(3′-chloro-2,2′-difluoro-5-methoxy-4-biphenylyl)-2-oxo-N-3-pyridazinyl-1,5,7,8-tetrahydro-1,6-naphthyridine-6(2H)-sulfonamide] |  | 168
10 | COc1ccc(-c2ccc(Cl)c(C)c2)cc1-n1c2c(ccc1=O)CN(S(=O)(=O)Nc1cccnn1)CC2 [Example 56-P, P-1-(4′-chloro-4-methoxy-3′-methyl-3-biphenylyl)-2-oxo-N-3-pyridazinyl-1,5,7,8-tetrahydro-1,6-naphthyridine-6(2H)-sulfonamide] |  | 493

The next lines start with the values.

Row | IC50 [1] [nM] | IC50 [2] [nM] | Compound
11 | 16.7 | 254 | COc1cc(-c2cc(F)cc(Cl)c2)ccc1-n1c2c(ccc1=O)CN(S(=O)(=O)Nc1ccon1)CC2 (racemic) [7-(Rac), (Rac)-1-(3′-chloro-5′-fluoro-3-methoxy-4-biphenylyl)-N-3-isoxazolyl-2-oxo-1,5,7,8-tetrahydro-1,6-naphthyridine-6(2H)-sulfonamide]
12 | 31.7 | 350 | COc1cc(-c2cc(F)cc(Cl)c2)ccc1-n1c2c(ccc1=O)CN(S(=O)(=O)Nc1cccnn1)CC2 (racemic) [8-(Rac), (Rac)-1-(3′-chloro-5′-fluoro-3-methoxy-4-biphenylyl)-2-oxo-N-3-pyridazinyl-1,5,7,8-tetrahydro-1,6-naphthyridine-6(2H)-sulfonamide]
13 | 60.9 | 371 | COc1cc(-c2cc(F)cc(Cl)c2)c(F)cc1-n1c2c(ccc1=O)CN(S(=O)(=O)Nc1ccccn1)CC2 (racemic) [Example 11-(Rac), (Rac)-1-(3′-chloro-2,5′-difluoro-5-methoxy-4-biphenylyl)-2-oxo-N-2-pyridinyl-1,5,7,8-tetrahydro-1,6-naphthyridine-6(2H)-sulfonamide]
14 | 191 | 1120 | COc1cc(-c2cc(F)cc(F)c2)c(F)cc1-n1c2c(ccc1=O)CN(S(=O)(=O)Nc1ncon1)CC2 (racemic) [Example 17-(Rac), (Rac)-N-1,2,4-oxadiazol-3-yl-2-oxo-1-(2,3′,5′-trifluoro-5-methoxy-4-biphenylyl)-1,5,7,8-tetrahydro-1,6-naphthyridine-6(2H)-sulfonamide]
15 | 199 | 1680 | COc1cc(-c2ccc(F)c(F)c2)c(F)cc1-n1c2c(ccc1=O)CN(S(=O)(=O)Nc1ncccn1)CC2 (racemic) [Example 28-(Rac), (Rac)-2-oxo-N-2-pyrimidinyl-1-(2,3′,4′-trifluoro-5-methoxy-4-biphenylyl)-1,5,7,8-tetrahydro-1,6-naphthyridine-6(2H)-sulfonamide]
16 | 44.3 | 993 | COc1cc(-c2ccc(Cl)c(C)c2)c(F)cc1-n1c2c(ccc1=O)CN(S(=O)(=O)Nc1ncccn1)CC2 (racemic) [Example 30, (Rac)-1-(4′-chloro-2-fluoro-5-methoxy-3′-methyl-4-biphenylyl)-2-oxo-N-2-pyrimidinyl-1,5,7,8-tetrahydro-1,6-naphthyridine-6(2H)-sulfonamide]
17 | 173 | 423 | COc1nc(-c2cc(F)cc(Cl)c2)c(F)cc1-n1c2c(ccc1=O)CN(S(=O)(=O)Nc1ccon1)CC2 (racemic) [Example 36, (Rac)-1-(6-(3-chloro-5-fluorophenyl)-5-fluoro-2-methoxy-3-pyridinyl)-N-3-isoxazolyl-2-oxo-1,5,7,8-tetrahydro-1,6-naphthyridine-6(2H)-sulfonamide]
18 | 42.3 | 204 | COc1cc(-c2ccc(Cl)c(C)c2)c(F)cc1-n1c2c(ccc1=O)CN(S(=O)(=O)Nc1cc(C)ncn1)CC2 (racemic) [Example 40, (Rac)-1-(4′-chloro-2-fluoro-5-methoxy-3′-methyl-4-biphenylyl)-N-(6-methyl-4-pyrimidinyl)-2-oxo-1,5,7,8-tetrahydro-1,6-naphthyridine-6(2H)-sulfonamide]
19 | 23.6 | 63.5 | COc1cc(-c2ccc(F)c(C)c2)c(Cl)cc1-n1c2c(ccc1=O)CN(S(=O)(=O)Nc1cccnn1)CC2 (racemic) [Example 92-(Rac), (Rac)-1-(2-chloro-4′-fluoro-5-methoxy-3′-methyl-[1,1′-biphenyl]-4-yl)-2-oxo-N-(pyridazin-3-yl)-1,2,7,8-tetrahydro-1,6-naphthyridine-6(5H)-sulfonamide]
20 | 2800 | > 1000 | COc1cc(-c2cc(F)cc(F)c2)c(F)cc1-n1c2c(ccc1=O)[C@@H](C)N(S(=O)(=O)Nc1ccon1)CC2 (single isomer, unassigned) [Example 3-A-M]
21 | 8520 | > 1000 | COc1cc(-c2cc(F)cc(F)c2)c(F)cc1-n1c2c(ccc1=O)CN(S(=O)(=O)Nc1ccon1)[C@@H](C)C2 (single isomer, unassigned) [Example 3-C-M]
22 |  | 172 | COc1cc(-c2cnc(OC)c(Cl)c2)c(F)cc1-n1c2c(ccc1=O)CN(S(=O)(=O)Nc1cccnn1)CC2 [Example 50, P-1-(4-(5-chloro-6-methoxy-3-pyridinyl)-5-fluoro-2-methoxyphenyl)-2-oxo-N-3-pyridazinyl-1,5,7,8-tetrahydro-1,6-naphthyridine-6(2H)-sulfonamide]
23 |  | 232 | COc1ccc(-c2cccc(Cl)c2C)cc1-n1c2c(ccc1=O)CN(S(=O)(=O)Nc1cccnn1)CC2 [Example 57-P, P-1-(3′-chloro-4-methoxy-2′-methyl-3-biphenylyl)-2-oxo-N-3-pyridazinyl-1,5,7,8-tetrahydro-1,6-naphthyridine-6(2H)-sulfonamide]

Reference: patent US10472356B2, “Bicyclic ketone sulfonamide compounds” (AMGEN INC., priority 2015, dated 2019)
